Reference: patent publication US20220267753A1, “RATIONAL THERAPEUTIC TARGETING OF ONCOGENIC IMMUNE SIGNALING STATES IN MYELOID MALIGNANCIES VIA THE UBIQUITIN CONJUGATING ENZYME UBE2N” (CHILDREN'S HOSPITAL MEDICAL CENTER, priority 2019, published 2022)

Assays:
MOLM-13 cells [1] = test: MOLM-13 xenograft in NSG mice; type: in vivo; conditions: 2 mg/kg i.p.
Protocol: Lentivirally-infected MOLM-13 cells or HL-60 cells (1.9×10^4 cells per recipient) expressing a non-silencing control shRNA or UBE2N specific shRNAs were tail vein transplanted into sublethally irradiated NOD-scid IL2Rγ^−/− (NSG) mice (250 rads whole body irradiation). Moribund mice were sacrificed and assessed for leukemic burden measurements. BM and spleen cells were analyzed for GFP expression by flow cytometry using a BD FACS Canto System (BD Biosciences, San Jose, Calif.). Bone marrow aspirates were taken 2 weeks after transplantation for smears or to assess engraftment by flow cytometry. For survival analysis after UBE2N inhibitors treatment, NSG mice (n=10/group) were injected with 1×10^4 MOLM-13 cells and treated with 4 doses of 2 mg/kg/d of UC-764865, or vehicle control (0.2% tween 20 in water) for 2 weeks (8 doses total). Time of death was recorded, and Kaplan Meier survival analysis was performed using GraphPad Prism version 7.00 for Mac (GraphPad Software, La Jolla Calif. USA). Engraftment was assessed in bone marrow (BM) at one week after transplantation by flow cytometric determination of human CD33 (BDPharmingen 555450, Franklin Lakes, N.J.), human CD45 and/or human CD15. Briefly, mice were euthanized with carbon dioxide following the AVMA Guidelines for the Euthanasia of Animals and BM cells were immediately extracted by breaking the femurs with a mortar and pestle. Red blood cells were lysed with RBC lysis buffer (555899 BD Biosciences) and washed twice with Phosphate-Buffered Saline (PBS) (Dulbecco's 45000-446 (PK)), 2% Fetal Bovine Serum (FBS). 1×10^6 cells were stained with human CD33 (BDPharmighen 555450), murine CD45 (BDPharmighen 557659) by incubating in PBS, 0.2% FBS for 30 minutes on ice in the dark. After staining the cells were washed once with PBS and resuspended in incubation buffer with propidium iodine. Cells were analyzed using a BD FACS Canto System (BD Biosciences, San Jose, Calif.). Alternatively, 1×10^4 MOLM-13 cells were xenotransplanted in NSG mice without conditioning (n=10/group). Treatment with UBE2N inhibitors was started one day after transplant for […] (5 days dosing of 2 mg/kg/d, resting 2 days, 2 days dosing of 2 mg/kg/d) by intraperitoneal injections (IP). All the mice were sacrificed at day 10 post transplantation and engraftment of MOLM-13 cells was analyzed in spleen and BM by staining for human CD15 (BDPharmighen 551376) as described above. For patient-derived xenografts (PDX), 1×106 to 6×10^6 cells were transplanted via tail vain in NSGS mice conditioned with busulfan (final dose of 30 mg/kg) 24 hours prior to transplantation. Treatment with UC-764865 was started 3 days after transplantation with 5 weekly doses of 25 mg/kg UC-764865 or vehicle control (methyl-β-cyclodextrin, 50 mg/ml) via LP during a period of 2-6 weeks. BM aspirates were performed once a week and determination of engraftment was performed as described above.

MOLM-13 cells [2] = test: MTS assay of MOLM-13 cells overexpressing UBE2N wild type or UBE2N C87S; type: cell-based, human
Source text: For knockdown studies, UBE2N shRNA template oligonucleotides from the TRC shRNA library cloned into the pLKO.1 TRC cloning vector (Addgene: #10878) and pLKO.1 TRC cloning vector (Table 3). The puromycin gene in pLKO.1 was replaced with GFP. pLKO.1 TRC control was used as non-silencing control (Addgene: #10879). For production of lentiviral particles, lentiviral shRNA expression constructs were transfected together with packaging vectors into 293T producer cells using TransIT transfection reagent (Mirus, MIR 2306), supernatants were harvested after 48 and 72 hours, and concentrated by ultracentrifugation. […] UBE2N knockdown efficiency was determined by quantitative real time PCR (qRT-PCR) and western blot and quantified as described elsewhere. […] Levels of overexpression of UBE2N were determined by western blot.
AML cell lines (5×10^3 cells/well) were seeded in 96-well plates and grown for 24 to 96 h in serum (10%)-containing medium in the presence or absence of inhibitors at the indicated concentrations. Proliferation was analyzed by means of an MTS assay using the CellTiter 96 Aqueous One Solution Cell Proliferation Assay (Promega, Madison, Wis., USA), according to the manufacturer's instructions. […] For the screening of 160 compounds from the UC library, the cell metabolic activity was assessed at 24 hours of treatment of MOLM-13 cells. […]

Row | SMILES | onset of leukemia (MOLM-13 cells [1]; 4 doses/week for 2 weeks, vehicle 8 days) [days] | overall median survival (MOLM-13 cells [1]; 4 doses/week for 2 weeks, vehicle 17 days, P<0.0001) [days] | reduction of leukemic burden (percent of human CD15+ cells) in BM (MOLM-13 cells [1]; 7 doses, day 10 post transplantation, P=0.03) [%] | reduction of leukemic burden (percent of human CD15+ cells) in spleen (MOLM-13 cells [1]; 7 doses, day 10 post transplantation, P=0.3) [%] | spleen weight at time of death (MOLM-13 cells [1]; vehicle 63±29 mg, P=0.0001) [mg] | reduction of splenomegaly at time of death (MOLM-13 cells [1]; vs vehicle) [%] | viability of MOLM-13 cells expressing UBE2N(C87S) (MOLM-13 cells [2]) | viability of MOLM-13 cells expressing wild-type UBE2N (MOLM-13 cells [2])
1 | COc1ccc(C(=O)C=CSc2nc3ccc(C)cc3[nH]2)cc1 [UC-764865, 1-(4-methoxyphenyl)-3-[(6-methyl-1H-benzimidazol-2-yl)sulfanyl]prop-2-en-1-one] | 18 | 21 | 40 | 70 | 18 ± 6 | 80 | – | –
2 | CCc1ccc(C(=O)C=CSc2nc3ccc(C)cc3[nH]2)cc1 [UC-764864, 1-(4-ethylphenyl)-3-[(6-methyl-1H-benzimidazol-2-yl)sulfanyl]prop-2-en-1-one] | – | – | – | – | – | – | did not affect | significantly suppressed
